In brackets after ≈: the same amount, converted by molar mass.
Experiments:
Trypanosoma cruzi [1] = assay: Antitrypanosomal activity against Trypanosoma cruzi Y epimastigotes after 48 hrs by MTT assay; format: functional, organism-based
Trypanosoma cruzi [2] = assay: Effect on oxygen uptake in Trypanosoma cruzi Y epimastigotes assessed as rate of oxygen consumption at 80 uM relative to control; format: functional
Trypanosoma cruzi [3] = assay: Effect on oxygen uptake in Trypanosoma cruzi Y epimastigotes assessed as rate of oxygen consumption at 120 uM relative to control; format: functional
Trypanosoma cruzi [4] = assay: Effect on oxygen redox cycling in Trypanosoma cruzi Y epimastigotes assessed as rate of oxygen consumption at 80 uM in presence of cyanide relative to control; format: functional
Trypanosoma cruzi [5] = assay: Effect on oxygen redox cycling in Trypanosoma cruzi Y epimastigotes assessed as rate of oxygen consumption at 120 uM in presence of cyanide relative to control; format: functional
Trypanosoma cruzi [6] = assay: Antitrypanosomal activity against Trypanosoma cruzi EP epimastigotes after 96 hrs; format: functional
Trypanosoma cruzi [7] = assay: Antitrypanosomal activity against Trypanosoma cruzi EP amastigotes; format: functional, organism-based
Trypanosoma cruzi [8] = assay: Antitrypanosomal activity against Trypanosoma cruzi EP amastigotes in Vero cells after 96 hrs; format: functional
Vero = assay: Cytotoxicity against african green monkey Vero cells; format: cell-based; details: Chlorocebus sabaeus
Trypanosoma cruzi [9] = assay: Inhibition of sterol biosynthesis in Trypanosoma cruzi EP epimastigotes assessed as exogenous cholesterol levels at 10 uM after 120 hrs; format: functional; set-up: scale not given: the % may be the effect or the level left
Trypanosoma cruzi [10] = assay: Inhibition of sterol biosynthesis in Trypanosoma cruzi EP epimastigotes assessed as endogenous squalene levels at 10 uM after 120 hrs; format: functional; set-up: scale not given: the % may be the effect or the level left
Trypanosoma cruzi [11] = assay: Inhibition of sterol biosynthesis in Trypanosoma cruzi EP epimastigotes assessed as ergosterol levels at 3 uM after 120 hrs; format: functional; set-up: scale not given: the % may be the effect or the level left
Trypanosoma cruzi [12] = assay: Inhibition of sterol biosynthesis in Trypanosoma cruzi EP epimastigotes assessed as ergosterol levels at 10 uM after 120 hrs; format: functional; set-up: scale not given: the % may be the effect or the level left
Trypanosoma cruzi [13] = assay: Inhibition of sterol biosynthesis in Trypanosoma cruzi EP epimastigotes assessed as 24-ethyl-5,7,22-cholestatrien-3beta-ol levels at 3 uM after 120 hrs; format: functional; set-up: scale not given: the % may be the effect or the level left
Trypanosoma cruzi [14] = assay: Inhibition of sterol biosynthesis in Trypanosoma cruzi EP epimastigotes assessed as ergosta-5,7-24(24')-trien-3beta-ol levels at 3 uM after 120 hrs; format: functional; set-up: scale not given: the % may be the effect or the level left
Trypanosoma cruzi [15] = assay: Inhibition of sterol biosynthesis in Trypanosoma cruzi EP epimastigotes assessed as ergosta-5,7-dien-3beta-ol levels at 3 uM after 120 hrs; format: functional; set-up: scale not given: the % may be the effect or the level left
Trypanosoma cruzi [16] = assay: Inhibition of sterol biosynthesis in Trypanosoma cruzi EP epimastigotes assessed as 24-ethyl-5,7-cholestadien-3beta-ol levels at 3 uM after 120 hrs; format: functional; set-up: scale not given: the % may be the effect or the level left
Trypanosoma cruzi [17] = assay: Effect on oxygen uptake in Trypanosoma cruzi Y epimastigotes assessed as rate of oxygen consumption at 60 uM relative to control; format: functional
Trypanosoma cruzi [18] = assay: Effect on oxygen redox cycling in Trypanosoma cruzi Y epimastigotes assessed as rate of oxygen consumption at 60 uM in presence of cyanide relative to control; format: functional
Trypanosoma cruzi [19] = assay: Inhibition of sterol biosynthesis in Trypanosoma cruzi EP epimastigotes assessed as exogenous cholesterol levels at 3 uM after 120 hrs; format: functional; set-up: scale not given: the % may be the effect or the level left
Trypanosoma cruzi [20] = assay: Inhibition of sterol biosynthesis in Trypanosoma cruzi EP epimastigotes assessed as endogenous squalene levels at 3 uM after 120 hrs; format: functional; set-up: scale not given: the % may be the effect or the level left
Trypanosoma cruzi [21] = assay: Inhibition of sterol biosynthesis in Trypanosoma cruzi EP epimastigotes assessed as endogenous squalene levels at 30 uM after 120 hrs; format: functional; set-up: scale not given: the % may be the effect or the level left
Trypanosoma cruzi [22] = assay: Inhibition of sterol biosynthesis in Trypanosoma cruzi EP epimastigotes assessed as ergosterol levels at 30 uM after 120 hrs; format: functional; set-up: scale not given: the % may be the effect or the level left
Trypanosoma cruzi [23] = assay: Inhibition of sterol biosynthesis in Trypanosoma cruzi EP epimastigotes assessed as 24-ethyl-5,7,22-cholestatrien-3beta-ol levels at 30 uM after 120 hrs; format: functional; set-up: scale not given: the % may be the effect or the level left
Trypanosoma cruzi [24] = assay: Inhibition of sterol biosynthesis in Trypanosoma cruzi EP epimastigotes assessed as ergosta-5,7-24(24')-trien-3beta-ol levels at 30 uM after 120 hrs; format: functional; set-up: scale not given: the % may be the effect or the level left
Trypanosoma cruzi [25] = assay: Inhibition of sterol biosynthesis in Trypanosoma cruzi EP epimastigotes assessed as ergosta-5,7-dien-3beta-ol levels at 30 uM after 120 hrs; format: functional; set-up: scale not given: the % may be the effect or the level left
Trypanosoma cruzi [26] = assay: Inhibition of sterol biosynthesis in Trypanosoma cruzi EP epimastigotes assessed as exogenous cholesterol levels at 30 uM after 120 hrs; format: functional; set-up: scale not given: the % may be the effect or the level left
Trypanosoma cruzi [27] = assay: Inhibition of sterol biosynthesis in Trypanosoma cruzi EP epimastigotes assessed as 24-ethyl-5,7-cholestadien-3beta-ol levels at 10 uM after 120 hrs; format: functional; set-up: scale not given: the % may be the effect or the level left
Trypanosoma cruzi [28] = assay: Inhibition of sterol biosynthesis in Trypanosoma cruzi EP epimastigotes assessed as ergosta-5,7-dien-3beta-ol levels at 10 uM after 120 hrs; format: functional; set-up: scale not given: the % may be the effect or the level left
Trypanosoma cruzi [29] = assay: Inhibition of sterol biosynthesis in Trypanosoma cruzi EP epimastigotes assessed as ergosta-5,7-24(24')-trien-3beta-ol levels at 10 uM after 120 hrs; format: functional; set-up: scale not given: the % may be the effect or the level left
Trypanosoma cruzi [30] = assay: Effect on oxygen uptake in Trypanosoma cruzi Y epimastigotes assessed as rate of oxygen consumption at 166 uM relative to control; format: functional
Trypanosoma cruzi [31] = assay: Effect on oxygen redox cycling in Trypanosoma cruzi Y epimastigotes assessed as rate of oxygen consumption at 166 uM in presence of cyanide relative to control; format: functional

SMILES | IC50 (Trypanosoma cruzi [1]) | MIC (Trypanosoma cruzi [6]) | IC50 (Trypanosoma cruzi [7]) | MIC (Trypanosoma cruzi [8]) | IC50 (Vero) | Activity (Trypanosoma cruzi [9]) | Activity (Trypanosoma cruzi [10]) | Activity (Trypanosoma cruzi [11]) | Activity (Trypanosoma cruzi [13]) | Activity (Trypanosoma cruzi [15]) | Activity (Trypanosoma cruzi [19]) | Activity (Trypanosoma cruzi [20]) | Activity (Trypanosoma cruzi [21]) | Activity (Trypanosoma cruzi [22]) | Activity (Trypanosoma cruzi [23]) | Activity (Trypanosoma cruzi [26]) | further results
C=C(C)CNC(=O)N/N=C/c1ccc([N+](=O)[O-])o1 | 3.8 µM | 10 µM (≈ 2.52 µg/mL) | 0.9 µM | 10 µM (≈ 2.52 µg/mL) | 32.1 µM | 31.9% | 68.1% | – | – | – | – | – | – | – | – | – | Activity (Trypanosoma cruzi [2]): 110%; Activity (Trypanosoma cruzi [3]): 148%; Activity (Trypanosoma cruzi [4]): 33%; Activity (Trypanosoma cruzi [5]): 27%
O=C(N/N=C/c1ccc([N+](=O)[O-])o1)Oc1ccccc1 | 10.6 µM | 10 µM (≈ 2.75 µg/mL) | 2.3 µM | 30 µM (≈ 8.26 µg/mL) | 19.4 µM | 35% | 60.6% | 7.6% | 9% | 6% | 32.3% | 39.1% | – | – | – | – | Activity (Trypanosoma cruzi [12]): 4.4%; Activity (Trypanosoma cruzi [14]): 2.4%; Activity (Trypanosoma cruzi [16]): 3.6%; Activity (Trypanosoma cruzi [17]): 105%; Activity (Trypanosoma cruzi [18]): 31%
C=C(C)CNC(=O)N/N=C/C=C/c1ccc([N+](=O)[O-])o1 | – | 10 µM (≈ 2.78 µg/mL) | – | – | – | 9.2% | 90.8% | 18.4% | 10.8% | 6.1% | 20.3% | 44.4% | – | – | – | – | –
C=CCOC(=O)N/N=C/C=C/c1ccc([N+](=O)[O-])o1 | – | > 30 µM | – | – | – | – | – | – | – | – | – | – | 36.4% | 15% | 10.6% | 29.4% | Activity (Trypanosoma cruzi [24]): 4%; Activity (Trypanosoma cruzi [25]): 4.6%
C=CCOC(=O)N/N=C/c1ccc([N+](=O)[O-])o1 | – | 30 µM (≈ 7.18 µg/mL) | – | – | – | – | – | – | – | – | – | – | 33.1% | 7% | 6.8% | 53.1% | –
O=C(N/N=C/C=C/c1ccc([N+](=O)[O-])o1)OC/C=C/c1ccccc1 | 3.7 µM | 10 µM (≈ 3.41 µg/mL) | 0.65 µM | 10 µM (≈ 3.41 µg/mL) | 11.1 µM | 6.7% | 93.3% | 21% | 16% | 8% | 33.9% | 19% | – | – | – | – | Activity (Trypanosoma cruzi [14]): 2.1%; Activity (Trypanosoma cruzi [27]): 6.7%; Activity (Trypanosoma cruzi [2]): 89%; Activity (Trypanosoma cruzi [3]): 160%; Activity (Trypanosoma cruzi [4]): 38%; Activity (Trypanosoma cruzi [5]): 40%
O=C(N/N=C/c1ccc([N+](=O)[O-])o1)OC/C=C/c1ccccc1 | – | 30 µM (≈ 9.46 µg/mL) | – | – | – | 52.5% | 16% | – | – | – | – | – | 64.4% | 5.8% | 7.8% | 22% | Activity (Trypanosoma cruzi [12]): 10.4%; Activity (Trypanosoma cruzi [28]): 5%; Activity (Trypanosoma cruzi [29]): 2.3%
O=C(N/N=C/C=C/c1ccc([N+](=O)[O-])o1)Oc1ccccc1 | 6.7 µM | 3 µM (≈ 0.904 µg/mL) | 0.31 µM | 3 µM (≈ 0.904 µg/mL) | 9.1 µM | 8.1% | 91.9% | 7.9% | – | – | 46.9% | 45.2% | – | – | – | – | Activity (Trypanosoma cruzi [30]): 88%; Activity (Trypanosoma cruzi [31]): 8%

— ChEMBL document CHEMBL1140771, “Heteroallyl-containing 5-nitrofuranes as new anti-Trypanosoma cruzi agents with a dual mechanism of action” (Bioorg Med Chem, 2008)
